Results reported in patent publication US20050209278A1, “Piperidinyl- and piperazinyl-sulfonylmethyl hydroxamic acids and their use as protease inhibitors” (priority 2002, published 2005).
Like-named read-outs stand apart in the source and are kept apart here.

Key:
Format in all cases: biochemical
[1] = target: T1, MMP-9 (Homo sapiens, UniProt P14780); assay: MMP-9 inhibition (in vitro Ki)
T1 construct: made in house; host or cells: MMP-9-transfected HT1080 cells (spent media)

[2] = target: T2, MMP-2 (Homo sapiens, UniProt P08253); assay: MMP-2 inhibition (in vitro Ki)
T2 construct: made in house; host or cells: MMP-2-transfected p2AHT2 cells
T2 sequence (P08253 110-660): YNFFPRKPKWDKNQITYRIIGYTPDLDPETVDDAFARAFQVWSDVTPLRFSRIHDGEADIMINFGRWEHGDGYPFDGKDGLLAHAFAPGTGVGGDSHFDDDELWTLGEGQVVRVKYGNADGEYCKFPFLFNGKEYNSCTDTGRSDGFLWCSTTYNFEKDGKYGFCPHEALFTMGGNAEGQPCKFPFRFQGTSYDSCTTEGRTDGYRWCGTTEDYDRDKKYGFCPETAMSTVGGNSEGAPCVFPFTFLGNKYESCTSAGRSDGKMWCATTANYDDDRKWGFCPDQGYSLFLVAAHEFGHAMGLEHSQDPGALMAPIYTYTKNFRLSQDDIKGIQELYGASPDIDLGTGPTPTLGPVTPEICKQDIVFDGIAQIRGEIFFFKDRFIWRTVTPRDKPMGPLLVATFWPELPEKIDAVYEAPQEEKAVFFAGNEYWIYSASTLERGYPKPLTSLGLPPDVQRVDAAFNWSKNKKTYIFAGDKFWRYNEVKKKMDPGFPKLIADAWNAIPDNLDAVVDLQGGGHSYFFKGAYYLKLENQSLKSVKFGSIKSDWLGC

[3] = target: T3, MMP-13 (Homo sapiens, UniProt P45452); assay: MMP-13 inhibition (in vitro Ki); conditions: Table 8; read-out: MMP-13 Ki
T3 construct: made in house; host or cells: baculovirus / insect cells

[4] = target: T4, MMP-14 (Homo sapiens, UniProt P50281); assay: MMP-14 inhibition (in vitro Ki)
T4 construct: The catalytic domain enzyme was expressed in E. coli inclusion bodies, solubilized in urea; made in house

[5] = target: T5, MMP-1 (Homo sapiens, UniProt P03956); assay: MMP-1 inhibition (in vitro Ki)
T5 construct: made in house; host or cells: MMP-1-transfected HT-1080 cells (spent media)
T5 sequence (P03956 100-469): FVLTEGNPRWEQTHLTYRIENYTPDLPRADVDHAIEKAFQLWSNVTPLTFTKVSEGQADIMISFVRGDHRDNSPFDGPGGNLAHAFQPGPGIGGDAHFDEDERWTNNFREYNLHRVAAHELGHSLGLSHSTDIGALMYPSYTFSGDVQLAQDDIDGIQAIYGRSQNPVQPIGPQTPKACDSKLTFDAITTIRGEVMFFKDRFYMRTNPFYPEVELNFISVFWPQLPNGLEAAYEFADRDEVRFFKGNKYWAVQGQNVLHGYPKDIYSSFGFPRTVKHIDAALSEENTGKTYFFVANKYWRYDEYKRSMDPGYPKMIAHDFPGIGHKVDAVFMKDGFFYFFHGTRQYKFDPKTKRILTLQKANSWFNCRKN

T1 sequence (P14780 107-707 limits assumed): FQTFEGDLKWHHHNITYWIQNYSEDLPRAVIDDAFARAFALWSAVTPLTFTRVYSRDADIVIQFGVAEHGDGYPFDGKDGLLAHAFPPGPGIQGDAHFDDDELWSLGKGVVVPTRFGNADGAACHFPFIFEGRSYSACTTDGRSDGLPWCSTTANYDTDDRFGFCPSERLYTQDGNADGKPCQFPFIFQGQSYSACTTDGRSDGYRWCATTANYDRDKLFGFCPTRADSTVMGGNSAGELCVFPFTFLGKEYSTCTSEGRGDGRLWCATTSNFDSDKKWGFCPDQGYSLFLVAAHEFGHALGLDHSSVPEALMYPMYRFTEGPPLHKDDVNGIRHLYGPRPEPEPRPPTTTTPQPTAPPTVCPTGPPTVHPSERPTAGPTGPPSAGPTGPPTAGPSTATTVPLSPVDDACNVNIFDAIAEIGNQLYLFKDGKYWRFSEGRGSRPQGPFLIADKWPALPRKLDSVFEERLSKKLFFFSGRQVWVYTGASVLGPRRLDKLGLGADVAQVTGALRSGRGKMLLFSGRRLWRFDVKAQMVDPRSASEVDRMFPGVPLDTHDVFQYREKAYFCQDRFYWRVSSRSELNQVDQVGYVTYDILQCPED

CC(C)(C)CCOC1CCN(S(=O)(=O)C2(C(=O)NO)CCOCC2)CC1 [Example A36E]
Ki ([1]; Table 8, read-out: MMP-9 Ki): 365 nM | Ki ([2]; Table 8, read-out: MMP-2 Ki): 112 nM | Ki [3]: 65.8 nM | Ki ([4]; Table 8, read-out: MMP-14 Ki): 4250 nM | Ki ([5]; Table 8, read-out: MMP-1 Ki): > 10000 nM

CC(C)CCCCCOC1CCN(S(=O)(=O)C2(C(=O)NO)CCOCC2)CC1 [Example A36F]
Ki ([1]; Table 8, read-out: MMP-9 Ki): 2.26 nM | Ki ([2]; Table 8, read-out: MMP-2 Ki): 2.47 nM | Ki [3]: 1.11 nM | Ki ([4]; Table 8, read-out: MMP-14 Ki): 1900 nM | Ki ([5]; Table 8, read-out: MMP-1 Ki): > 10000 nM

O=C(NO)C1(S(=O)(=O)N2CCC(OCCCc3ccccc3)CC2)CCOCC1 [Example A36G]
Ki ([1]; Table 8, read-out: MMP-9 Ki): 16.4 nM | Ki ([2]; Table 8, read-out: MMP-2 Ki): 31.1 nM | Ki [3]: 30.2 nM | Ki ([4]; Table 8, read-out: MMP-14 Ki): 2610 nM | Ki ([5]; Table 8, read-out: MMP-1 Ki): > 10000 nM

CCCCOCCOC1CCN(S(=O)(=O)C2(C(=O)NO)CCOCC2)CC1 [Example A36H]
Ki ([1]; Table 8, read-out: MMP-9 Ki): 45.7 nM | Ki ([2]; Table 8, read-out: MMP-2 Ki): 60.1 nM | Ki [3]: 70.5 nM | Ki ([4]; Table 8, read-out: MMP-14 Ki): > 10000 nM | Ki ([5]; Table 8, read-out: MMP-1 Ki): > 10000 nM

CCCCOCCCC1CCN(S(=O)(=O)C2(C(=O)NO)CCOCC2)CC1 [Example A36I]
Ki ([1]; Table 8, read-out: MMP-9 Ki): 2.57 nM | Ki ([2]; Table 8, read-out: MMP-2 Ki): 9.08 nM | Ki [3]: 7.7 nM | Ki ([4]; Table 8, read-out: MMP-14 Ki): 6370 nM | Ki ([5]; Table 8, read-out: MMP-1 Ki): > 10000 nM

O=C(NO)C1(S(=O)(=O)N2CCC(CCCOCCCC(F)(F)F)CC2)CCOCC1 [Example A36J]
Ki ([1]; Table 8, read-out: MMP-9 Ki): 10.3 nM | Ki ([2]; Table 8, read-out: MMP-2 Ki): 7.8 nM | Ki [3]: 4.38 nM | Ki ([4]; Table 8, read-out: MMP-14 Ki): 6550 nM | Ki ([5]; Table 8, read-out: MMP-1 Ki): > 10000 nM

O=C(NO)C1(S(=O)(=O)N2CCC(CCCCCOCCC(F)(F)F)CC2)CCOCC1 [Example A37, 4-{4-[5-(3,3,3-Trifluoro-propoxy)-pentyl]-piperidine-1-sulfonyl}-tetrahydro-pyran-4-carboxylic Acid Hydroxyamide]
Ki ([1]; Table 8, read-out: MMP-9 Ki): 0.3 nM | Ki ([2]; Table 8, read-out: MMP-2 Ki): 0.97 nM | Ki [3]: 0.3 nM | Ki ([4]; Table 8, read-out: MMP-14 Ki): 690 nM | Ki ([5]; Table 8, read-out: MMP-1 Ki): 6710 nM

CCOCCCCCC1CCN(S(=O)(=O)C2(C(=O)NO)CCOCC2)CC1 [Example A38, 4-[4-(5-ethoxy-pentyl)-piperidine-1-sulfonyl]-tetrahydro-pyran-4-carboxylic Acid Hydroxyamide]
Ki ([1]; Table 8, read-out: MMP-9 Ki): 2.25 nM | Ki ([2]; Table 8, read-out: MMP-2 Ki): 0.72 nM | Ki [3]: 0.52 nM | Ki ([4]; Table 8, read-out: MMP-14 Ki): 1190 nM | Ki ([5]; Table 8, read-out: MMP-1 Ki): 4580 nM

O=C(NO)C1(S(=O)(=O)N2CCC(N3CCN(c4ccc(F)cc4)CC3)CC2)CCOCC1 [Example A197]
Ki ([1]; Table 9, read-out: MMP-9 Ki (IC-50)): 1620 nM | Ki ([2]; Table 9, read-out: MMP-2 Ki (IC-50)): 770 nM | Ki ([4]; Table 9, read-out: MMP-14 Ki (IC-50)): > 10000 nM | Ki ([5]; Table 9, read-out: MMP-1 Ki (IC-50)): > 10000 nM
